For 19 molecules, T/C results are on record in PubChem BioAssay AID310 (DTP/NCI, 2004).

This assay relates to C3AKF1 mice, osteogenic sarcoma HE10734 s.c., tumor weight T/C. The assay is described as follows: NCI In Vivo Anticancer Drug Screen. Data for tumor model Osteogenic Sarcoma HE 10734 (subcutaneous) in C3AKF1 (CHKRF1) mice. The note with it: endpoint: mean tumor weight, schedule: Q01DX010 (ip), higher = larger tumour. As to the method:
The antitumor activity of compounds was measured in mice bearing transplantable tumors. Survival or tumor size were measured and the results are expressed as the measurement made in the treated group (T) divided by the measurement made in the vehicle treated control group (C). The tumor model used in this assay is Osteogenic Sarcoma HE 10734 (subcutaneous) in C3AKF1 (CHKRF1) mice

The mark [1] stands for this setting: dose: 35.0 mg/kg/injection, vehicle: carboxymethylcellulose (CMC).
Setting [2] is: dose: 62.0 mg/kg/injection, vehicle: saline.
Where [3] appears, read: dose: 125.0 mg/kg/injection, vehicle: saline.
Where [4] appears, read: dose: 45.0 mg/kg/injection, vehicle: carboxymethylcellulose (CMC).
[5] abbreviates: dose: 16.0 mg/kg/injection, vehicle: carboxymethylcellulose (CMC).
Where [6] appears, read: dose: 24.0 mg/kg/injection, vehicle: carboxymethylcellulose (CMC).
[7] abbreviates: dose: 55.0 mg/kg/injection, vehicle: carboxymethylcellulose (CMC).
[8] abbreviates: dose: 85.0 mg/kg/injection, vehicle: carboxymethylcellulose (CMC).
Setting [9] is: dose: 250.0 mg/kg/injection, vehicle: saline.
[10] abbreviates: dose: 50.0 mg/kg/injection, vehicle: saline.
The mark [11] stands for this setting: dose: 100.0 mg/kg/injection, vehicle: saline.
Where [12] appears, read: dose: 125.0 mg/kg/injection, vehicle: carboxymethylcellulose (CMC).

Several values for one entry are separate records, joined by “and”; a condition that tells them apart may be missing. Equal entries are not always repeated. Inconclusive results are not listed.

For the molecule `CC(=O)Nc1ccc(NC(=O)c2ccc([As](O)O)cc2)cc1`, the T/C is, setting by setting: (dose: 15.0 mg/kg/injection, vehicle: carboxymethylcellulose (CMC)) 89 % of control; (dose: 30.0 mg/kg/injection, vehicle: carboxymethylcellulose (CMC)) 111 % of control; (dose: 60.0 mg/kg/injection, vehicle: carboxymethylcellulose (CMC)) 85 % of control; (dose: 120.0 mg/kg/injection, vehicle: carboxymethylcellulose (CMC)) 61 % of control and 62 % of control; (dose: 240.0 mg/kg/injection, vehicle: carboxymethylcellulose (CMC)) 32 % of control.

As to `CCCCCCCCCCCCCCCCC(C(=O)O)C(O)(CC(=O)O)C(=O)O` (stereo not given), the T/C was 100 % of control (dose: 22.0 mg/kg/injection, vehicle: carboxymethylcellulose (CMC)) and 68 % of control under setting [1].

Consider `CCC(=O)NC1=C(N2CC2)C(=O)C(NC(=O)CC)=C(N2CC2)C1=O`, for which the T/C is, setting by setting: (dose: 0.26 mg/kg/injection, vehicle: saline) 118 % of control; (dose: 0.4 mg/kg/injection, vehicle: saline) 77 % of control; (dose: 1.2 mg/kg/injection, vehicle: saline) 30 % of control.

For the molecule `C=CCn1c(=O)n(CC=C)c(=O)n(CC=C)c1=O`, the T/C (dose: 31.0 mg/kg/injection, vehicle: saline) is 84 % of control; the T/C under setting [2] was 94 % of control; the T/C under setting [3] is 69 % of control; the T/C (dose: 375.0 mg/kg/injection, vehicle: saline) is 31 % of control.

Regarding `S=C(N=Nc1ccccc1)NNc1ccccc1`, the T/C is 95 % of control under setting [4] and 49 % of control (dose: 65.0 mg/kg/injection, vehicle: carboxymethylcellulose (CMC)).

Turning to `O=c1[nH]c2cc(Cl)c(Cl)cc2o1`, the T/C (dose: 10.0 mg/kg/injection, vehicle: carboxymethylcellulose (CMC)) was 84 % of control; the T/C under setting [5] is 113 % of control; the T/C under setting [6] is 74 % of control; the T/C (dose: 37.0 mg/kg/injection, vehicle: carboxymethylcellulose (CMC)) is 105 % of control and 117 % of control; the T/C under setting [7] was 80 % of control; the T/C under setting [8] is 98 % of control.

Turning to `Cc1nc(N)nc(N)c1-c1ccc(Cl)c(Cl)c1`, the T/C is, setting by setting: (dose: 0.09 mg/kg/injection, vehicle: carboxymethylcellulose (CMC)) 94 % of control; (dose: 0.18 mg/kg/injection, vehicle: carboxymethylcellulose (CMC)) 103 % of control; (dose: 0.37 mg/kg/injection, vehicle: carboxymethylcellulose (CMC)) 88 % of control; (dose: 1.5 mg/kg/injection, vehicle: carboxymethylcellulose (CMC)) 21 % of control.

For `Fc1ccc(CSc2ncnc3c2ncn3C2CCCCO2)cc1` (stereo not given), the T/C is 81 % of control under setting [2]; 71 % of control under setting [3]; 93 % of control under setting [9]; 28 % of control (dose: 500.0 mg/kg/injection, vehicle: saline).

For the molecule `O=[N+]([O-])c1ccccc1CSc1ncnc2nc[nH]c12`, the T/C is, setting by setting: under setting [2], 106 % of control; under setting [3], 81 % of control; under setting [9], 28 % of control.

For `CC(C)Sc1nc(N)nc2nc[nH]c12`, the T/C was 71 % of control (dose: 25.0 mg/kg/injection, vehicle: saline); 83 % of control under setting [10]; 76 % of control under setting [11]; 23 % of control (dose: 200.0 mg/kg/injection, vehicle: saline).

Take `O=C(Nc1ccc(C2=NCCN2)cc1)c1ccc(C(=O)Nc2ccc(C3=NCCN3)cc2)c(NC(=O)c2ccc(C(=O)Nc3cc(C(=O)Nc4ccc(C5=NCCN5)cc4)ccc3C(=O)Nc3ccc(C4=NCCN4)cc3)cc2)c1`: the T/C (dose: 28.0 mg/kg/injection, vehicle: saline) was 111 % of control; the T/C (dose: 45.0 mg/kg/injection, vehicle: saline) is 104 % of control; the T/C (dose: 65.0 mg/kg/injection, vehicle: saline) was 118 % of control; the T/C (dose: 95.0 mg/kg/injection, vehicle: saline) is 98 % of control and 107 % of control; the T/C (dose: 140.0 mg/kg/injection, vehicle: saline) is 93 % of control; the T/C (dose: 210.0 mg/kg/injection, vehicle: saline) was 89 % of control. Further, the T/C (dose: 315.0 mg/kg/injection, vehicle: saline) was 110 % of control.

Take `Clc1ncnc2c1ncn2C1CCCO1` (stereo not given): the T/C by setting is: (dose: 37.0 mg/kg/injection, vehicle: saline) 77 % of control and 80 % of control; (dose: 450.0 mg/kg/injection, vehicle: saline) 69 % of control.

On to `CCCn1cnc2c(SCc3ccccc3Cl)nc(N)nc21`, for which the T/C is, setting by setting: (dose: 100.0 mg/kg/injection, vehicle: carboxymethylcellulose (CMC)) 86 % of control; (dose: 200.0 mg/kg/injection, vehicle: carboxymethylcellulose (CMC)) 87 % of control; (dose: 400.0 mg/kg/injection, vehicle: carboxymethylcellulose (CMC)) 55 % of control.

Take `N#CCSc1nc(N)nc2nc[nH]c12`: the T/C reads like this: (dose: 2.0 mg/kg/injection, vehicle: carboxymethylcellulose (CMC)) 90 % of control; (dose: 4.0 mg/kg/injection, vehicle: carboxymethylcellulose (CMC)) 107 % of control; (dose: 8.0 mg/kg/injection, vehicle: carboxymethylcellulose (CMC)) 86 % of control; under setting [5], 91 % of control; under setting [6], 113 % of control; under setting [1], 93 % of control. Moreover, the T/C under setting [7] is 90 % of control and 100 % of control; the T/C under setting [8] was 44 % of control; the T/C under setting [12] is 22 % of control.

In the case of `O=c1c[n+](-c2ccccc2)[nH]o1`, the T/C is, setting by setting: (dose: 22.5 mg/kg/injection, vehicle: carboxymethylcellulose (CMC)) 87 % of control; under setting [4], 110 % of control; (dose: 90.0 mg/kg/injection, vehicle: carboxymethylcellulose (CMC)) 83 % of control; (dose: 180.0 mg/kg/injection, vehicle: carboxymethylcellulose (CMC)) 70 % of control.

In the case of `CC1(C)CC(C)(c2ccccc2)c2ccccc21` (stereo not given), the T/C by setting is: (dose: 75.0 mg/kg/injection, vehicle: saline) 92 % of control; (dose: 150.0 mg/kg/injection, vehicle: saline) 70 % of control; (dose: 300.0 mg/kg/injection, vehicle: saline) 52 % of control.

Regarding `O=C(O)C1(NO)CCCC1`, the T/C (dose: 15.0 mg/kg/injection, vehicle: saline) was 88 % of control; the T/C (dose: 23.0 mg/kg/injection, vehicle: saline) was 112 % of control; the T/C (dose: 35.0 mg/kg/injection, vehicle: saline) was 71 % of control; the T/C (dose: 112.0 mg/kg/injection, vehicle: saline) was 29 % of control.

For the molecule `c1ccc(CSc2ncnc3nc[nH]c23)nc1`, the T/C is 76 % of control and 81 % of control under setting [10]; 29 % of control and 39 % of control under setting [11].

For the molecule `Nc1ccc2ccccc2c1N=Nc1ccccc1`, the T/C (dose: 62.5 mg/kg/injection, vehicle: carboxymethylcellulose (CMC)) was 101 % of control; the T/C under setting [12] is 100 % of control; the T/C (dose: 250.0 mg/kg/injection, vehicle: carboxymethylcellulose (CMC)) was 65 % of control; the T/C (dose: 500.0 mg/kg/injection, vehicle: carboxymethylcellulose (CMC)) is 41 % of control.
